One experiment relates to Human neutrophils. As to the kind of experiment: Neutrophil-dependent initiation of lipid peroxidation of endogenous plasma lipids (PMA-activated neutrophils, LC/ESI/MS/MS). As to conditions: 50% plasma, 2 h, 37° C, 1 mM NaN3, 300 nM catalase, 100 µM methionine, 100 µM ascorbate, 10 µg/ml SOD. The class given is cell-based. As for the experimental part: (§1) Neutrophils (1×10^6/ml) isolated from normal and MPO-deficient individuals were incubated at 37° C in HBSS supplemented with DTPA (100 µM, pH 7.0) and fresh human plasma (50% v/v). Cells were activated by addition of phorbol myristate acetate (PMA, 200 nM) and incubated for 2 h (Complete System). The content of 9-H(P)ODE and 9-H(P)ETE formed within endogenous plasma lipids were then determined by LC/ESI/MS/MS. Where indicated, human MPO (30 nM) was added to reaction mixtures. Data represent the mean ±SD of triplicate determinations. Each bar within a cluster for a given condition represents results obtained from independent experiments performed with neutrophil preparations from a distinct donor. PMN(MPO+), neutrophils isolated from normal subjects; PMN(MPO-), neutrophils isolated from MPO-deficient subjects. • Figs. 5(A-B) are graphs showing the characterization of neutrophil-dependent initiation of lipid peroxidation of endogenous plasma lipids. Neutrophils (1×10^6/ml) isolated from normal subjects (PMN) were incubated at 37° C in HBSS supplemented with DTPA (100 µM, pH 7.0) and fresh human plasma (50% v/v). Cells were activated by addition of phorbol myristate acetate (PMA, 200 nM) and then incubated for 2 h (Complete System). The content of 9-H(P)ODE and 9-H(P)ETE formed within endogenous plasma lipids were then determined by LC/ESI/MS/MS. Additions or deletions to the Complete System were as indicated. The final concentrations of additions to the Complete System were 30 nM human MPO, 1 mM NaN3, 300 nM catalase (Cat), 300 nM heat inactivated-catalase (hiCat), 100 µM methionine (Met), 100 µM ascorbate and 10 µg/ml superoxide dismutase (SOD). […] The content of 9-H(P)ODE and 9-H(P)ETE formed within endogenous plasma lipids were then determined by LC/ESI/MS/MS. […] The contents of the indicated oxidized PC species were determined in native LDL and LDL oxidized by the MPO-H2O2-NO2 system (NO2-LDL) using LC/ESI/MS/MS. […]

The target of a further experiment is T1, human MPO (Homo sapiens, UniProt P05164).
T1 construct: from tissue; host or cells: human leukocytes, for the MPO standard of the ELISA; the lipid peroxidation text only says 'isolated'/'purified' and cites the literature
The experiment in a line: MPO-dependent initiation of lipid peroxidation of endogenous plasma lipids (isolated MPO plus glucose/glucose oxidase). The class given is biochemical. As to conditions: 30 nM MPO, G/GO, 50% plasma, 12 h, 37° C; 1 mM NaN3, 300 nM catalase, 200 nM SOD, 100 µM methionine, 100 µM ascorbate. The protocol:
as §1, with “Neutrophils (1×10^6/ml) isolated from normal subjects (PMN) were incubated at 37° C in HBSS supplemented with DTPA (100 µM, pH 7.0) and fresh human plasma (50% v/v). Cells were activated by addition of phorbol myristate acetate (PMA, 200 nM) and then incubated for 2 h (Complete System).” left out, “LC/ESI/MS/MS.” for “LC/ESI/MS/MS. Additions or deletions to the Complete System were as indicated. The final concentrations of additions to the Complete System were 30 nM human MPO, 1 mM NaN3, 300 nM catalase (Cat), 300 nM heat inactivated-catalase (hiCat), 100 µM methionine (Met), 100 µM ascorbate and 10 µg/ml superoxide dismutase (SOD).”

The subject of experiment [1] is MPO and multiple distinct oxidation products formed by MPO. The experiment in a line: Example 14: plasma MPO and oxidation products, ARB therapy. The settings on record: 16 weeks of losartan 25 mg PO QD, n=16. The class given is in vivo, human. From the text:
Angiotensin receptor blocking agents are a new therapy used for treatment of hypertension. They act upon the same biochemical axis as ACEI. Accordingly, they promote clinical benefits beyond those linked to blood pressure reduction - those related to presumed anti-inflammatory and antioxidant actions. However, no means for objectively monitoring these effects have been available. We hypothesized that monitoring levels of MPO and its oxidation products might serve as a way of quantifying the anti-inflammatory and antioxidant effects of ARBs. […] These studies underscore the potential utility of MPO and its oxidation products for monitoring systemic antioxidant and anti-inflammatory effects of therapeutic interventions.

Experiment [2] concerns lipid levels and high-sensitivity CRP.
Procedure: Wilcoxon rank-sum test was used to analyze the differences between measurements at baseline and 12 weeks. […] Approximate 95% confidence intervals were found using Fisher's r-to-z transform. Multiple regression analyses were performed to determine factors associated with changes in nitrotyrosine levels.
We performed a prospective, open-label study. The study cohort consisted of a consecutive sample of patients (n=35) recruited from the Preventive Cardiology Clinic at the Cleveland Clinic Foundation. Patients 21 years of age and older without clinical evidence of coronary artery disease and with LDL cholesterol (LDL-C) levels 130 mg per deciliter or greater, despite at least 6-8 weeks of therapeutic lifestyle interventions, were eligible to participate in the study. Briefly, at initial screening, a detailed medical history was obtained, a thorough physical examination was performed, and a fasting lipoprotein profile was obtained. Patients potentially eligible for the study received counseling on nutritional and exercise interventions. If after 6-8 weeks LDL-C remained above 130 mg/dL, patients were eligible for enrollment in the study. […] Fasting morning plasma samples were collected prior to initiation of therapy (baseline), and following 12 weeks of therapy. Patients with active liver disease or renal insufficiency defined as a serum creatinine level of 1.8 mg per deciliter or greater were excluded. […] All patients gave written informed consent, and the Institutional Review Board at the Cleveland Clinic Foundation approved the study protocol.
Blood samples were collected into EDTA tubes from fasting patients. Samples were centrifuged at 3500 rpm for 10 minutes at 4°C, and stored under conditions to minimize artificial oxidation (i.e., with antioxidant cocktail, under inert atmosphere). Briefly, plasma was removed and allocated into tubes containing butylated hydroxytoluene (100µM final) and diethylenetriaminepentaacetic acid (100µM final) overlaid with argon and stored at -80°C until analysis. Standard methods were used to measure lipid levels and high-sensitivity CRP.
Data are presented as mean ± SD, and significance level was set at p < 0.05. Wilcoxon rank-sum test was used to analyze the differences between NO2Tyr, diTyr, and CRP at baseline and 12 weeks, as they were not normally distributed.
The test system of experiment [3] is oxidation products produced by myeloperoxidase and nitric oxide-derived oxidants. As to the kind of experiment: Prospective intervention study: plasma protein-bound tyrosine oxidation products at baseline and after 12 weeks of atorvastatin. In kind it is in vivo, human.
The test system of experiment [4] is MPO-generated markers of protein and lipid oxidation. The experiment in a line: Example 10: MPO-generated oxidation markers and hs-CRP after 12 weeks of atorvastatin (Figs. 14, 15). The settings on record: baseline vs 12 weeks of atorvastatin 10 mg PO QHS. The class given is in vivo, human.
Another experiment concerns MPO. As to the kind of experiment: Example 15: plasma levels of MPO, statin therapy. The settings on record: n=27. The class given is in vivo, human.
The test system of experiment [5] is oxidation products produced by myeloperoxidase and nitric oxide-derived oxidants. As to the kind of experiment: Prospective intervention study: plasma protein-bound tyrosine oxidation products at baseline and after 12 weeks of atorvastatin. In kind it is in vivo, human. The protocol: The population consisted of a consecutive sample of patients recruited from the Preventive Cardiology Clinic at the Cleveland Clinic Foundation from June 2001 until January 2002 who were eligible and consented to participate in the study. Patients 21 years of age and older without clinical evidence of CAD and with low-density lipoprotein cholesterol (LDL-C) levels ≥ 130mg/dL, despite at least 6-8 weeks of therapeutic lifestyle interventions, were eligible to participate in the study. Briefly at initial screening, a detailed medical history was obtained, a thorough physical examination was performed, and a fasting lipoprotein profile was obtained. Patients potentially eligible for the study received counseling on nutritional and exercise interventions. If after 6-8 weeks LDL-C remained ≥130mg/dL, patients were eligible for enrollment in the study. […] Patient with active liver disease or renal insufficiency defined as serum creatine levels of 1.8 mg per deciliter or greater were excluded. […] All patients gave written informed consent, and the Institutional Review Board at the Cleveland Clinic Foundation approved the study protocol.
Blood samples were collected into serum separator tubes (Case-control study) or EDTA tubes (Intervention study) from overnight fasted patients. Samples were centrifuged at 3500 rpm for 10 minutes, plasma/serum recovered, and aliquots stored at -80°C until analysis. Personnel blinded to clinical data performed all laboratory measurements. Lipoprotein/lipid profiles and high sensitivity C-reactive protein (CRP) measurements were performed using CDC standardized assays.
Protein-bound nitrotyrosine levels were determined by stable isotope dilution liquid chromatography-electrospray ionization tandem mass spectrometry based methods using an ion trap mass spectrometer (LCQ Deca, ThermoFinigann, San Jose, CA). […] Nitrotyrosine content in samples is expressed as the mole ratio between nitrotyrosine and the precursor amino acid tyrosine. […]
The source holds these as a separate data set.

Experiment [6] deals with MPO and multiple distinct oxidation products formed by MPO. As to the kind of experiment: Example 13: plasma MPO and oxidation products, ACEI therapy. The settings on record: 16 weeks of lisinopril 20 mg PO QD, n=9. In kind it is in vivo, human.
Procedure: Subjects (n=9) had plasma drawn at baseline, and then 16 weeks following therapy with lisinopril (Zestril, 20 mg PO QD). Plasma levels of MPO, protein-bound nitrotyrosine, chlorotyrosine, dityrosine, and 9-H(P)ETE and F2Isoprostantes were monitored.
[7] abbreviates: 12 Weeks of atorvastatin 10 mg orally per day, n = 35, mean ± SD.
The mark [8] stands for this setting: baseline to 12 weeks, atorvastatin 10 mg per day, n = 35.
[9] abbreviates: reduction, baseline to 12 weeks, atorvastatin 10 mg per day, given unsigned.
Where [10] appears, read: reduction, baseline to 12 weeks, atorvastatin 10 mg per day, given unsigned, not significant.
[11] abbreviates: plasma protein-bound, 12 Weeks of atorvastatin 10 mg orally per day, n = 35, mean ± SD.
The mark [12] stands for this setting: n=35, LDL cholesterol ≥ 130mg/dL.

“And” between values parts separate entries of the source, which are not always exact repeats. Identical values can stand only once.

T1 sequence (P05164 279-745 limits assumed): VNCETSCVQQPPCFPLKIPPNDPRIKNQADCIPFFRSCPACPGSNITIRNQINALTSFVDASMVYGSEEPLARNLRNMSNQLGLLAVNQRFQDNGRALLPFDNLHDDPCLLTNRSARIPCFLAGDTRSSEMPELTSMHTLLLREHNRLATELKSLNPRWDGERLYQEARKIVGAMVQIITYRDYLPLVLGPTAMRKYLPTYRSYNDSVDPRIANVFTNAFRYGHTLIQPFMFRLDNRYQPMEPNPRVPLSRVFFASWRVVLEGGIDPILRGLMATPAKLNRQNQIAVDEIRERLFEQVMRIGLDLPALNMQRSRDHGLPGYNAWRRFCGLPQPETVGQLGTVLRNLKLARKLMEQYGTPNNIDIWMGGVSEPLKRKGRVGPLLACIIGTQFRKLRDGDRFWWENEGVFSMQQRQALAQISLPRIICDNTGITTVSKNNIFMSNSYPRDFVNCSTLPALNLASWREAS
T1 sequence (P05164 165-273 limits assumed): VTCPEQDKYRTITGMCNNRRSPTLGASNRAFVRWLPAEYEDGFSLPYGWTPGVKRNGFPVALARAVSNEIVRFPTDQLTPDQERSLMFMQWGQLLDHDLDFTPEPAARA

`O[C@H](CS)[C@H](O)CS` (racemic) [dithiothreitol]: the “neutrophil-dependent peroxidation of endogenous plasma lipids (9-H(P)ODE and 9-H(P)ETE)” value with Human neutrophils is “failed to attenuate”.
Consider azide, for which, in the experiment with Human neutrophils, the “neutrophil-dependent peroxidation of endogenous plasma lipids (9-H(P)ODE and 9-H(P)ETE)” value is recorded as “complete inhibition”. Further, the “MPO-dependent lipid oxidation in plasma (9-H(P)ODE and 9-H(P)ETE)” value on human MPO is listed as “inhibited”.
`CCCCc1nc(Cl)c(CO)n1Cc1ccc(-c2ccccc2-c2nn[nH]n2)cc1` [losartan] came in with a Nitrotyrosine in experiment [1] (plasma protein-bound) of 8.1 umol/mol. Further, in experiment [1] (plasma), the “9-H(P)ETE” value is 0.27 mmol/mol, the Chlorotyrosine was 14.3 umol/mol, the Dityrosine was found to be 28.5 umol/mol and the F2Isoprostane is 0.68 mmol/mol. The MPO in experiment [1] (plasma) came to 9.9 ng/mL.
`CSCC[C@H](N)C(=O)O` [methionine]: in the experiment on Human neutrophils, the “neutrophil-dependent peroxidation of endogenous plasma lipids (9-H(P)ODE and 9-H(P)ETE)” value is reported as “failed to attenuate”. Besides, the “MPO-dependent lipid oxidation in plasma (9-H(P)ODE and 9-H(P)ETE)” value on human MPO is reported as “not affected”.
`CC(C)c1c(C(=O)Nc2ccccc2)c(-c2ccccc2)c(-c2ccc(F)cc2)n1CC[C@@H](O)C[C@@H](O)CC(=O)O` [Atorvastatin, atorvastatin]: in experiment [2] (setting [7]), the “Apolipoprotein B-100” value is 96 ± 21 mg/dL; the C-reactive protein was 0.23 ± 0.33 mg/dL and 0.23 mg/dL; the Total cholesterol level stood at 190 ± 28 mg/dL. In [2] (setting [8]), the “Apolipoprotein B-100, absolute change” value is -39 mg/dL; the “C-reactive protein, absolute change” value is recorded as -0.2 mg/dL; the “Total cholesterol, absolute change” value is listed as -63 mg/dL; the “Triglycerides, absolute change” value is recorded as -14 mg/dL. In experiment [2] (fasting, 12 Weeks of atorvastatin 10 mg orally per day, n = 35, mean ± SD), this compound came in with a Triglycerides of 132 ± 81 mg/dL. Besides, in experiment [2] (setting [9]), the “Apolipoprotein B-100, % change” value worked out at 29% and the “Total cholesterol, % change” value was found to be 25%. For the same compound, in experiment [2] (setting [10]), the “C-reactive protein, % change” value is reported as 11% and the “Triglycerides, % change” value worked out at 10%. In addition, in [3] (setting [8]), the “Chlorotyrosine, absolute change” value is -6 µmol/mol tyrosine; the “Dityrosine, absolute change” value was -11 µmol/mol tyrosine; the “ortho-tyrosine, absolute change” value is listed as -8 µmol/mol tyrosine. In experiment [3] (setting [11]), this compound came in with a Chlorotyrosine of 13 ± 4 µmol/mol tyrosine, a Dityrosine of 23 ± 8 µmol/mol tyrosine and an ortho-tyrosine of 81 ± 40 µmol/mol tyrosine. Also, in [3] (setting [9]), the “Chlorotyrosine, % change” value is 30% and the “Dityrosine, % change” value is recorded as 32%. Further, in [3] (setting [10]), the “ortho-tyrosine, % change” value stood at 9%. In [4] (setting [12]), this compound gave a reduction in dityrosine of 30% and a reduction in nitrotyrosine of 24%. For the same compound, the “decrease in hs-CRP” value in experiment [4] (n=35, failed to reach significance) came out at 11%. Moreover, the MPO in the experiment on MPO (plasma, 16 weeks of Atorvastatin 10 mg PO QD) turned out to be 17.3 ± 4.8 ng/mL. Moreover, the “MPO, % change” value in the experiment on MPO (reduction, baseline to 16 weeks of Atorvastatin 10 mg PO QD, given unsigned) stood at 12.2%. Further, in [5] (setting [8]), the “Nitrotyrosine, absolute change” value is reported as -4 µmol/mol tyrosine. For the same compound, in experiment [5] (setting [11]), the Nitrotyrosine came out at 11 ± 5 µmol/mol tyrosine. For the same compound, the “Nitrotyrosine, % change” value in [5] (setting [9]) is 25%.
In turn, `NCCCC[C@H](N[C@@H](CCc1ccccc1)C(=O)O)C(=O)N1CCC[C@H]1C(=O)O` [lisinopril] yielded a Nitrotyrosine in [6] (plasma protein-bound) of 10.3 µmol/mol. Further, in experiment [6] (plasma), the “9-H(P)ETE” value was 0.21 mmol/mol, the Chlorotyrosine turned out to be 15.0 µmol/mol, the Dityrosine is 24.1 µmol/mol and the F2Isoprostane is on record as 0.72 mmol/mol. The same compound showed an MPO in [6] (plasma) of 8.8 ng/mL.
